Data published in patent US20030157704A1, “Reagents and methods for identifying and modulating expression of genes regulated by CDK inhibitors” (priority 2001, published 2003).

Experiments:
HS 15.T cells = experiment: Mitogenic activity assay, 3H-thymidine incorporation; type: cell-based, human; settings: 60 hr in media then 24 hrs 3H-thymidine
Protocol: (§1) To verify the induction of secreted mitogenic and anti-apoptotic factors by p21, conditioned media from IPTG-treated HT1080 p21-9 cells were tested to investigate whether they would have an effect on cell growth and apoptosis. In these experiments, conditioned media were prepared by plating 10^6 HT1080 p21-9 cells per 15 cm plate in the presence of DMEM/10% FCS. The next day, IPTG was added to a final concentration of 50 μM, and this media was replaced three days later with DMEM supplemented with 0.5% FCS and 50 μM IPTG. Two days later (days 3-5 of IPTG treatment), this conditioned media was collected and stored at 4° C. up to 15 days before use. Control media were prepared by adding IPTG-free DMEM/0.5% FCS to untreated cells grown to the same density as IPTG-treated cells and collecting the media two days thereafter.
The slow-growing human fibrosarcoma cell line HS 15.T was used to detect mitogenic activity in these conditioned media. For mitogenic activity assays, both types of conditioned media, as well as fresh media and 1:1 mixtures of conditioned media and fresh media were used to test mitogenic activity. In these experiments, the conditioned media were supplemented with 1% or 2% FCS. […] Cells were then collected and their ^3H-thymidine incorporation determined as described by Mosca et al. (1992, Mol. Cell. Biol. 12: 4375-4383).

C8 cells = experiment: Apoptosis assay in serum-starved C8 cells; type: cell-based, mouse; settings: addition of IPTG by itself
Protocol: as §1
The effect of this conditioned media on apoptosis was also determined. […] Apoptosis was analyzed by plating 3×10^5 C8 cells per 6-cm plate, and replacing the media on the following day with fresh media supplemented with 0.4% serum or with conditioned media (no fresh serum added). DNA content analysis and DAPI staining were carried out after 24 hrs and 48 hrs, and relative cell numbers were measured by methylene blue staining (Perry et al., 1992, Mutat. Res. 276: 189-197) after 48 hrs in low-serum media.

HT1080 p21-9 cells [1] = experiment: Cell cycle distribution by FACS analysis of DNA content; type: cell-based, human; settings: 24 hrs of IPTG treatment
Protocol: Cell cycle distribution was determined using FACS analysis of DNA content after staining with propidium iodide as described by Jordan et al. (1996, Cancer Res. 56: 816-825) using Becton Dickinson FACSort. Cell cycle distribution stabilized after 24 hrs of IPTG treatment. By this time, 42-43% of IPTG-treated cells were arrested in G1 and G2, respectively, and about 15% of the cells were arrested with S-phase DNA content. IPTG-treated HT1080 p21-9 cells also developed morphological senescence markers (enlarged and flattened morphology and increased granularity), as well as SA-β-gal activity (Chang et al., 1999, ibid.).

HT1080 p27-2 cells = experiment: as above; type: cell-based, human; settings: 50 μM IPTG, 24 hrs
Protocol: This cell population was subcloned, and 20 clonal cell lines were isolated and tested for IPTG-inducible growth inhibition. Cell line showing the strongest growth inhibition was designated HT1080 p16-5. This cell line has been deposited on Jan. 31, 2002 in the American Type Culture Collection (A.T.C.C.), Manassas, Va. and given Accession Number PTA-4020. […] Fractions of cells in different phases of the cell cycle were determined using FACS analysis of DNA content after staining with propidium iodide as described by Jordan et al. (1996, Cancer Res. 56:816-825) using Becton Dickinson FACSort. Cell cycle distribution stabilized after 24 hrs of IPTG treatment, by which time 93% of IPTG-treated cells were arrested in G1. Such G1 arrest is expected from the inhibition of CDK4/6 by p16.
Similarly, the G418-selected population of LNp27RO2 transduced cells was subcloned, and 38 clonal cell lines were isolated and tested for IPTG-inducible growth inhibition. Cell line showing the strongest growth inhibition was designated HT1080 p27-2. This cell line has been deposited on Jan. 31, 2002 in the American Type Culture Collection (A.T.C .C.), Manassas, Va. and given Accession Number PTA-4021. […] Cell cycle distribution stabilized after 24 hrs of IPTG treatment, by which time 89% of IPTG-treated cells were arrested in G1. Such G1 arrest is expected from the inhibition of CDK4/6 by p16.

p21 = p21 protein level after IPTG induction (ELISA); type: cell-based, human
Protocol: FIG. 2A is a graph of the time course of p21 induction after the addition of 50 μM IPTG, where p21 levels were determined by ELISA.
p21 expression from the LNp21CO3 vector in HT1080 p21-9 cells was induced by culturing the cells in DMEM medium containing 10% fetal calf serum (Hyclone, Logan, Utah) and IPTG. […] Upon removing the cells from IPTG-containing media, p21 expression fell about as rapidly as it had risen, returning to pre-induction levels at about 24 hours after IPTG was removed (FIG. 2B).

HT1080 p21-9 cells [2] = experiment: Labeling index (3H-thymidine) and mitotic index; type: cell-based, human
Protocol: Cell growth in the presence of IPTG was assayed in three ways: measuring ^3H-thymidine incorporation (termed the “labeling index”); observing the number of mitotic cells in the culture by microscopy (termed the “mitotic index”) and determining the distribution of the culture cells in different portions of the cell cycle (termed the “cell cycle distribution”).
^3H-thymidine incorporation assays were performed substantially as described by Dimri et al. (1995, Proc. Natl. Acad. Sci. USA 92: 9363-9367). Cells were cultured in the presence of ^3H-thymidine for 3 h, and then analyzed by autoradiography. DNA replication was determined by autoradiography ceased entirely by 9 hours after addition of IPTG to the culture media. The mitotic index was determined by observing cells microscopically and calculating the number of cells in mitosis after staining with 5 μg/mL 4,6-diamino-2-phenylindole (DAPI), and images were collected using a Leica DMIRB fluorescence microscope and Vaytek (Fairfield, Iowa) imaging system. Microscopically-detectable mitotic cells disappeared from these cultures by 14 hrs of IPTG treatment.

CC(C)S[C@@H]1O[C@H](CO)[C@H](O)[C@H](O)[C@H]1O [IPTG, isopropyl-β-thiogalactoside]
3H-thymidine incorporation (HS 15.T cells): no effect | apoptosis in C8 cells (C8 cells): no effect | cells arrested in G1 and G2, respectively (HT1080 p21-9 cells [1]): 42-43% | cells arrested with S-phase DNA content (HT1080 p21-9 cells [1]): about 15% | cells arrested in G1 (HT1080 p27-2 cells): 89% | time of peak p21 expression post-induction (p21; 50 μM IPTG): about 24 hours | increase of p21 levels in IPTG-treated cells (p21; HT1080 p21-9 cells): 15-20 fold | time of IPTG treatment by which mitotic cells disappeared (HT1080 p21-9 cells [2]; DAPI staining, microscopy): ≤ 14 h | time after addition of IPTG by which DNA replication ceased entirely (HT1080 p21-9 cells [2]; autoradiography of 3H-thymidine incorporation): ≤ 9 h
